One test addresses T1, human COX-2 (Homo sapiens, UniProt P35354).
T1 construct: expressed in transfected cells; host or cells: COS cells (stably transfected)
T1 sequence (P35354 18-604): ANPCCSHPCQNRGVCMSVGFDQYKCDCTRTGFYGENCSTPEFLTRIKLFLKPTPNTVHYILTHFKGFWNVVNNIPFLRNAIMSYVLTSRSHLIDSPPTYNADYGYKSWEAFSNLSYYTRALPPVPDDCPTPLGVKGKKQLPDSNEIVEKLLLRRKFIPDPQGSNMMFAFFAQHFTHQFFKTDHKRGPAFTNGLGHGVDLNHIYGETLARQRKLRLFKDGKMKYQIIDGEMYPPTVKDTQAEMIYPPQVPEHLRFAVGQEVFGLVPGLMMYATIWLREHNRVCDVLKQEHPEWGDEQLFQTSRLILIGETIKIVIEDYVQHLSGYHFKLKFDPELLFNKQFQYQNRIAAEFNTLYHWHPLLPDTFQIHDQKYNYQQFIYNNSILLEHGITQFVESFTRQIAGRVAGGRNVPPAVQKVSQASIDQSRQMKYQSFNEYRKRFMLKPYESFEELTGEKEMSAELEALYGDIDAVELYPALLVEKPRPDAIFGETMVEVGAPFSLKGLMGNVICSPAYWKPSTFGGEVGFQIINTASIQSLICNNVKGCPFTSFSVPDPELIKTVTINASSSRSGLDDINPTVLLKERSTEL
Nature of the test: Cell based assay, COS cells stably transfected with human COX-2, PGE2 release. The following applies: inhibition of PGE2 release, 30 μM arachidonic acid. How it is done: 24 Hours prior to experiment, COS cells were transferred from the 175 cm^2 flasks in which they were grown, onto 24-well cell culture plates using the following procedure. The incubation medium (Dulbecco's modified eagles medium (DMEM) supplemented with heat-inactivated foetal calf serum (10% v/v), penicillin (100 IU/ml), streptomycin (100 μg/ml) and geneticin (600 μg/ml)) was removed from a flask of confluent cells (1 flask at confluency contains approximately 1×10^7 cells). 5 ml of phosphate buffered saline (PBS) was added to the flask to wash the cells. […] The flask was then removed from the incubator and 5 ml of fresh incubation medium was added. The contents of the flask was transferred to a 250 ml sterile container and the volume of incubation medium subsequently made up to 100 ml. 1 ml cell suspension was pipetted into each well of 4×24-well cell culture plates. The plates were then placed in an incubator (37° C., 95% air/5% CO2) overnight. If more than 1 flask of cells were required, the cells from the individual flasks were combined before being dispensed into the 24-well plates.
Following the overnight incubation, the incubation medium was completely removed from the 24-well cell culture plates and replaced with 250 μl fresh DMEM (37° C.). The test compounds were made up to 250× the required test concentration in DMSO and were added to the wells in a volume of 1 μl. Plates were then mixed gently by swirling and then placed in an incubator for 1 hour (37° C., 95% air/5% CO2). […] Plates were then incubated for a further 10 minutes, after which the incubation medium was removed from each well of the plates and stored at −20° C., prior to determination of prostaglandin E2 (PGE2) levels using enzyme immunoassay. […] The selectivity ratio of inhibition of COX-1 versus COX-2 was calculated by comparing respective IC50 values.

In test [1] the target is T2, COX-1 (Homo sapiens, UniProt P23219). Put plainly: Cell based assay, COS cells stably transfected with human COX-1, PGE2 release. The following applies: inhibition of PGE2 release, 30 μM arachidonic acid. Further details: expressed in transfected cells; host or cells: COS cells (stably transfected). Here is the method: Inhibitory activity against human COX-1 and COX-2 was assessed in COS cells which had been stably transfected with EDNA for human COX-1 and human COX-2. 24 Hours prior to experiment, COS cells were transferred from the 175 cm^2 flasks in which they were grown, onto 24-well cell culture plates using the following procedure. The incubation medium (Dulbecco's modified eagles medium (DMEM) supplemented with heat-inactivated foetal calf serum (10% v/v), penicillin (100 IU/ml), streptomycin (100 μg/ml) and geneticin (600 μg/ml)) was removed from a flask of confluent cells (1 flask at confluency contains approximately 1×10^7 cells). 5 ml of phosphate buffered saline (PBS) was added to the flask to wash the cells. Having discarded the PBS, cells were then incubated with 5 ml trypsin for 5 minutes in an incubator (37°). The flask was then removed from the incubator and 5 ml of fresh incubation medium was added. The contents of the flask was transferred to a 250 ml sterile container and the volume of incubation medium subsequently made up to 100 ml. 1 ml cell suspension was pipetted into each well of 4×24-well cell culture plates. The plates were then placed in an incubator (37° C., 95% air/5% CO2) overnight. If more than 1 flask of cells were required, the cells from the individual flasks were combined before being dispensed into the 24-well plates.
Following the overnight incubation, the incubation medium was completely removed from the 24-well cell culture plates and replaced with 250 μl fresh DMEM (37° C.). The test compounds were made up to 250× the required test concentration in DMSO and were added to the wells in a volume of 1 μl. Plates were then mixed gently by swirling and then placed in an incubator for 1 hour (37° C., 95% air/5% CO2). Following the incubation period, 10 μl of arachidonic acid (750 μM) was added to each well to give a final arachidonic acid concentration of 30 μM. […] The selectivity ratio of inhibition of COX-1 versus COX-2 was calculated by comparing respective IC50 values.

A further test has as its target T3, microsomal h-COX2 (Homo sapiens, UniProt P35354).
T3 construct: made in house; host or cells: baculovirus infected SF9 cells (microsomal preparation)
T3 sequence (P35354 18-604): T1 sequence (P35354 18-604)
Put plainly: Microsomal assay, microsomal preparation from baculovirus infected SF9 cells, PGE2 by EIA. In kind it is biochemical. The following applies: 0.1 μM arachidonic acid, read-out: COX-2: IC50. Here is the method: Inhibitory activity against microsomal h-COX2 was assessed against a microsomal preparation from baculovirus infected SF9 cells. An aliquot of microsomal preparation was thawed slowly on ice and a 1/40,000 dilution prepared from it into the assay buffer (sterile water, degassed with argon containing 100 mM HEPES (pH 7.4), 10 mM EDTA (pH7.4), 1 mM phenol, 1 mM reduced glutathione, 20 mg/ml gelatin and 0.001 mM Hematin). Once diluted the enzyme solution was then sonicated for 5 seconds (Branson sonicator, setting 4, 1 cm tip) to ensure a homogeneous suspension. 155 μl enzyme solution was then added to each well of a 96-well microtitre plate containing either 5 μl test compound (40× required test concentration) or 5 μl DMSO for controls. Plates were then mixed and incubated at room temperature for 1 hour. Following the incubation period, 40 μl of 0.5 μM arachidonic acid was added to each well to give a final concentration of 0.1 μM. Plates were then mixed and incubated for exactly 10 minutes (room temperature) prior to addition of 25 μl 1M HCl (hydrochloric acid) to each well to stop the reaction. 25 μl of 1M NaOH (sodium hydroxide) was then added to each well to neutralise the solution prior to determination of PGE2 levels by enzyme immunoassay (EIA).

Test [2] concerns the target T2, COX-1. Put plainly: Microsomal assay, COX-1. In kind it is biochemical.

T2 sequence (P23219 24-599): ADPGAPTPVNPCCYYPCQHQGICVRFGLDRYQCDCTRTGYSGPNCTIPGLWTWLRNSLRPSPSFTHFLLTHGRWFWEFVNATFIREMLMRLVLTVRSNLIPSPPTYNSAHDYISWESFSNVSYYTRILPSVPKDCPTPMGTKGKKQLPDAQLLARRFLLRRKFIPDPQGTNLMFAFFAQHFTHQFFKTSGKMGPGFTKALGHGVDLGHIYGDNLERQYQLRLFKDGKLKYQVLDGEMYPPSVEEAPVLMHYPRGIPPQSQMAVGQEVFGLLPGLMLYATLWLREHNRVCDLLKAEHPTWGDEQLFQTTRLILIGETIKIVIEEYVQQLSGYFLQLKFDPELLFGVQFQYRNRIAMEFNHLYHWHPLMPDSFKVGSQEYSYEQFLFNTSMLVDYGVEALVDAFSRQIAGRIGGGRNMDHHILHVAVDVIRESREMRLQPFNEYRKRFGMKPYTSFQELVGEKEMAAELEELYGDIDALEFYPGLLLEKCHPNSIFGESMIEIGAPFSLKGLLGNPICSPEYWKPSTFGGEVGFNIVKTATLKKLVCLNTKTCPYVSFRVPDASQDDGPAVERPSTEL

As for `CS(=O)(=O)c1ccc(-c2cc(C(F)(F)F)nc(NC3CCCC3)n2)cc1` [Example 1, N-cyclopentyl-4-[4-(methylsulfonyl)phenyl]-6-(trifluoromethyl)pyrimidin-2-amine], the IC50 (as a rule, the point on the concentration scale where inhibition reaches its midpoint) is 0.1 nM on human COX-2 and above 24600 nM on COX-1 [1].

In the case of `CS(=O)(=O)c1ccc(-c2cc(C(F)(F)F)nc(NC3CCCCC3)n2)cc1` [Example 2, N-cyclohexyl-4-[4-(methylsulfonyl)phenyl]-6-(trifluoromethyl)pyrimidin-2-amine], the IC50 against human COX-2 is 0.5 nM; against COX-1 [1], above 58400 nM.

Take `CC(C)CNc1nc(-c2ccc(S(C)(=O)=O)cc2)cc(C(F)(F)F)n1` [Example 8, N-isobutyl-4-[4-(methylsulfonyl)phenyl]-6-(trifluoromethyl)pyrimidin-2-amine]: the IC50 at human COX-2 was 2 nM; on microsomal h-COX2 it was 12 nM; against COX-1 [2], above 100000 nM; against COX-1 [1], above 66000 nM.

Turning to `CS(=O)(=O)c1ccc(-c2cc(C(F)(F)F)nc(NCC3CCC3)n2)cc1` [Example 31, N-(cyclobutylmethyl)-4-[4-(methylsulfonyl)phenyl]-6-(trifluoromethyl)pyrimidin-2-amine], the IC50 on microsomal h-COX2 was below 1 nM; against COX-1 [2], above 100000 nM.
